Measurements reported in patent US20240294499A1, “TARGETED PROTEIN DEGRADATION USING BIFUNCTIONAL COMPOUNDS THAT BIND UBIQUITIN LIGASE AND TARGET MCL-1 PROTEIN” (Captor Therapeutics S.A., priority 2021, published 2024).

Assays:
MV-4-11 cells = experiment: Cell viability assay (CellTiter-Glo), MV-4-11; format: cell-based; conditions: Homo sapiens, MV4-11, 24 hours incubation, 1% FBS, read-out: Average pIC50 by molecule MV-4-11 (converted)
Text: (§1) The effect of various compounds of the invention on the viability of OPM-2, MV-4-11 and ARH-77 cell lines was investigated, using the CTG protocol described below.
(§2) OPM-2 and MV-4-11 cell lines are derived from multiple myeloma and acute myeloid leukaemia, respectively. Both cell lines are described in the literature as MCL-1 dependent lines, as opposed to lymphoblast-like ARH-77 cell line, which is described as independent of MCL-1 (Tron A E et al. Nat Commun. 2018; 9: 5341; Caenepeel S et al. Cancer Discov. 2018 December; 8(12):1582-1597).
(§3) Cells (OPM-2, MV-4-11 or ARH-77) were seeded on […] in a growth medium with FBS reduced to 1%. Next, compound stocks were pre-diluted in DMSO and added directly to the cells growth medium (final DMSO concentration: 0.5%). Compound concentrations used in this assay: 1/3 dilutions starting at 30 uM (9 to 12 points).
(§4) After 24 hours of incubation, cell viability was evaluated using CellTiter-Glo Luminescent Cell Viability Assay (Promega, cat #G7572). Luminescence signal was measured using a CLARIOstar Plus Multi-Mode Microplate Reader (574-590 nm).
(§5) Results were normalized to DMSO control.

ARH-77 cells = experiment: Cell viability assay (CellTiter-Glo), ARH-77; format: cell-based; conditions: Homo sapiens, ARH-77, 24 hours incubation, 1% FBS, read-out: Average pIC50 by molecule ARH-77 (converted)
Text: as §1, §2, §3, §4, §5

[1] = biological target: [MCL-1]-[compound of formula (I)]-[CRBN/DDB1] complex (Homo sapiens, UniProt Q07820+Q96SW2); experiment: AlphaLISA dose response ternary complex formation assay; format: binding; conditions: read-out: AlphaLISA dose response Average pEC50 by molecule (converted)
Sequence of [MCL-1]-[compound of formula (I)]-[CRBN/DDB1] complex (Q07820 whole entry): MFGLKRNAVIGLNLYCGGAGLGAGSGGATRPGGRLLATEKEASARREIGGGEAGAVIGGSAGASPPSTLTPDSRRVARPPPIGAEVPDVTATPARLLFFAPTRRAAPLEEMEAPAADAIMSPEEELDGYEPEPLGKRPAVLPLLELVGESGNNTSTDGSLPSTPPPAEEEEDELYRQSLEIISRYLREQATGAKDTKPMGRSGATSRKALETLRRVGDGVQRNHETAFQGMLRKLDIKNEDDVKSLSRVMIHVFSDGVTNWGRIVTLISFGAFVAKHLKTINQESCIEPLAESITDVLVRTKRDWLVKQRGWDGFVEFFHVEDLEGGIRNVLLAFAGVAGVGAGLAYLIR
Sequence of [MCL-1]-[compound of formula (I)]-[CRBN/DDB1] complex (Q96SW2 whole entry): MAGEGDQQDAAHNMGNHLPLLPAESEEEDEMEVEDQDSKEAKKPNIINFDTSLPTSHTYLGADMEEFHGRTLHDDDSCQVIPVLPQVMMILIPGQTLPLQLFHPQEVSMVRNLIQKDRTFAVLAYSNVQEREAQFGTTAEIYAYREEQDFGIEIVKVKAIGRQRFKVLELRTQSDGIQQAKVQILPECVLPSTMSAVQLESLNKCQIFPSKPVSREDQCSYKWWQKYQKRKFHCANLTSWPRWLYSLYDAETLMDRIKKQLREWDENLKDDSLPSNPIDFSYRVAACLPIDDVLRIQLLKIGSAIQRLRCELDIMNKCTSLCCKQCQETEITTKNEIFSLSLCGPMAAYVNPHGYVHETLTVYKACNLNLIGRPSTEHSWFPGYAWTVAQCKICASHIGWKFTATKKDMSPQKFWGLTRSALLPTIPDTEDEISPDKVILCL
Sequence of [MCL-1]-[compound of formula (I)]-[CRBN/DDB1] complex (Q16531 whole entry partner): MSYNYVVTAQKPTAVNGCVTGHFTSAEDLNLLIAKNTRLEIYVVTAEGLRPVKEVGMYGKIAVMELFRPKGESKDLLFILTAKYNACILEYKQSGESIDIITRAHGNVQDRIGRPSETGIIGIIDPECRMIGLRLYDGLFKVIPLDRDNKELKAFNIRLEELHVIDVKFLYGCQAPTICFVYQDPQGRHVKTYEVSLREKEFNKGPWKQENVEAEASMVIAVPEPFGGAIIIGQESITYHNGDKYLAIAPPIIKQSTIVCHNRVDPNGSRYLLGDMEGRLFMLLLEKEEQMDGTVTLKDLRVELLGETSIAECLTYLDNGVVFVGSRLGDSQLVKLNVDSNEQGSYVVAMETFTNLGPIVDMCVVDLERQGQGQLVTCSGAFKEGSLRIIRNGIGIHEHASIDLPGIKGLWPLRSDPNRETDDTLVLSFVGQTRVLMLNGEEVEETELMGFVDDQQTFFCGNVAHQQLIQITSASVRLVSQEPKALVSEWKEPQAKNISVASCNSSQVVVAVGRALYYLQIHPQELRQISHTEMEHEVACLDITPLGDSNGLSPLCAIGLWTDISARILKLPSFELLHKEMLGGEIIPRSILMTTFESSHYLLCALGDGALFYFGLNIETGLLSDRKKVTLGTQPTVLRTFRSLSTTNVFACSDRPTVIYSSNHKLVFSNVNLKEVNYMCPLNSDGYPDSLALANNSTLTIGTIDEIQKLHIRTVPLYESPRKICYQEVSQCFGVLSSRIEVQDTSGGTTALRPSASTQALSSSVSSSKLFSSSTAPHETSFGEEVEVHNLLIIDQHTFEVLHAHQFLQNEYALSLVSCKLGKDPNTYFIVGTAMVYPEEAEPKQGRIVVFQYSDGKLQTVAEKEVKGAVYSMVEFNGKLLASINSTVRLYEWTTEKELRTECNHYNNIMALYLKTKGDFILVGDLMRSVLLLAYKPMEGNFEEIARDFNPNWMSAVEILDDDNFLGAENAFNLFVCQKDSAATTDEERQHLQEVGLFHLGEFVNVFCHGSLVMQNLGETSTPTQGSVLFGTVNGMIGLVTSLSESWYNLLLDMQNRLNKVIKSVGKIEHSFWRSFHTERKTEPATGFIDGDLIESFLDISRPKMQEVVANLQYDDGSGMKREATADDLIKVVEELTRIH
Experimental: The effect of the bifunctional compounds of the invention on the formation of a ternary complex composed of [MCL-1]-[compound of formula (I)]-[CRBN/DDB1] was investigated with two methods: AlphaLISA dose response assay or HTRF ternary complex assay.
Two types of protein solution were prepared: • 40 nM biotinylated hMCL-1, 40 μg/ml AlphaScreen Streptavidin-coated Donor Beads in PBS buffer with 0.1% Tween-20 and 1 mM DTT, • 200 nM 6×His-CRBN/Strep-DDB1, 40 μg/ml AlphaLISA Anti-6×His Acceptor beads in PBS buffer with 0.1% Tween-20 and 1 mM DTT.
The prepared solutions were incubated at room temperature for 45 min and then the solution containing the donor beads was mixed with the solution containing the acceptor beads.
The tested compounds were dispensed onto a white 384-well AlphaPlate 384 SW. DMSO was backfilled to all wells, resulting in a final DMSO content of 2%. Wells containing only DMSO served as background. Next, 10 μl of solution with donor and acceptor beads was added to the wells.
The plate was sealed with transparent film and shaken using a VibroTurbulator for 60 see at room temperature, level 3. The plate was then spun down shortly (10 s, 1000 rcf, room temperature) and incubated at 25° C. for 30 min.
The read-out was performed with PerkinElmer Enspire Multimode Plate Reader (method for AlphaLISA 384-well low volume, Filterset: λexc=680 nm, λem=615 nm).
The results were analyzed as follows: • 1) an average of luminescence for background signal was calculated and used as a negative control; • 2) average of the maximum measured luminescence for 233 was calculated and used as an internal positive control; • 3) raw luminescence values were normalized against positive and negative controls; • 4) concentration points above the hook point were excluded; • 5) EC50 and pEC50 values were determined.

Cc1nn(C)c(C)c1-c1c(Cl)ccc2c(CCCOc3cccc4cc(F)ccc34)c(C(=O)O)n(CCN3CCN(C(=O)[C@@H](C)Oc4cccc5c4C(=O)N([C@@H]4CCC(=O)NC4=O)C5=O)CC3)c12 (single isomer, unassigned) [Compound 316]
IC50 (MV-4-11 cells): ≤ 100 nM
IC50 (ARH-77 cells): > 3160 nM
EC50 [1]: < 1000 nM

Cc1nn(C)c(C)c1-c1c(Cl)ccc2c(CCCOc3cccc4cc(F)ccc34)c(C(=O)O)n(CCCCNC(=O)CNc3cccc4c3C(=O)N(C3CCC(=O)NC3=O)C4=O)c12 (stereo not drawn) [Compound 325, 6-Chloro-1-[4-(2-{[2-(2,6-dioxopiperidin-3-yl)-1,3-dioxo-2,3-dihydro-1H-isoindol-4-yl]amino}acetamido)butyl]-3-{3-[(6-fluoronaphthalen-1-yl)oxy]propyl}-7-(1,3,5-trimethyl-1H-pyrazol-4-yl)-1H-indole-2-carboxylic acid]
IC50 (MV-4-11 cells): ≤ 100 nM
IC50 (ARH-77 cells): > 10000 nM
EC50 [1]: < 10 nM

Cc1nn(C)c(C)c1-c1c(Cl)ccc2c(CCCOc3cccc4cc(F)ccc34)c(C(=O)O)n(CCN3CCN(C(=O)Cn4c(C)nc5c(C(=O)NC6CCC(=O)NC6=O)ccc(Cl)c54)CC3)c12 (stereo not drawn) [Compound 271, 6-Chloro-1-(2-(4-(2-(7-chloro-4-((2,6-dioxopiperidin-3-yl)carbamoyl)-2-methyl-1H-benzo[d]imidazol-1-yl)acetyl)piperazin-1-yl)ethyl)-3-(3-((6-fluoronaphthalen-1-yl)oxy)propyl)-7-(1,3,5-trimethyl-1H-pyrazol-4-yl)-1H-indole-2-carboxylic acid]
IC50 (MV-4-11 cells): ≤ 100 nM
IC50 (ARH-77 cells): > 10000 nM
EC50 [1]: < 100 nM

Cc1nc2c(NCC(=O)N3CCN(CCn4c(C(=O)O)c(CCCOc5cccc6cc(F)ccc56)c5ccc(Cl)c(-c6c(C)nn(C)c6C)c54)CC3)cccc2cc1C1CCC(=O)NC1=O (stereo not drawn) [Compound 284, 6-Chloro-1-{2-[4-(2-{[3-(2,6-dioxopiperidin-3-yl)-2-methylquinolin-8-yl]amino}acetyl)piperazin-1-yl]ethyl}-3-{3-[(6-fluoronaphthalen-1-yl)oxy]propyl}-7-(1,3,5-trimethyl-1H-pyrazol-4-yl)-1H-indole-2-carboxylic acid]
IC50 (MV-4-11 cells): ≤ 100 nM
IC50 (ARH-77 cells): > 3160 nM
EC50 [1]: < 100 nM

Cc1nn(C)c(C)c1-c1c(Cl)ccc2c(CCCOc3cccc4cc(F)ccc34)c(C(=O)O)n(CCN3CCN(C(=O)[C@H](C)Oc4cccc5c4C(=O)N(C4CCC(=O)NC4=O)C5=O)CC3)c12 (mixture of isomers) [Compound 318, 6-Chloro-1-(2-(4-((2S)-2-((2-(2,6-dioxopiperidin-3-yl)-1,3-dioxoisoindolin-4-yl)oxy)propanoyl)piperazin-1-yl)ethyl)-3-(3-((6-fluoronaphthalen-1-yl)oxy)propyl)-7-(1,3,5-trimethyl-1H-pyrazol-4-yl)-1H-indole-2-carboxylic acid]
IC50 (MV-4-11 cells): ≤ 31.6 nM
IC50 (ARH-77 cells): > 10000 nM
EC50 [1]: < 100 nM

Cc1nn(C)c(C)c1-c1c(Cl)ccc2c(CCCOc3cccc4ccccc34)c(C(=O)O)n(CC[N+]3([O-])CCN(C(=O)COc4cccc5c4CN(C4CCC(=O)NC4=O)C5=O)CC3)c12 (stereo not drawn) [Compound 224, 1-(2-(2-carboxy-6-chloro-3-(3-(naphthalen-1-yloxy)propyl)-7-(1,3,5-trimethyl-1H-pyrazol-4-yl)-1H-indol-1-yl)ethyl)-4-(2-((2-(2,6-dioxopiperidin-3-yl)-1-oxoisoindolin-4-yl)oxy)acetyl)piperazine 1-oxide]
IC50 (MV-4-11 cells): ≤ 316 nM
IC50 (ARH-77 cells): > 10000 nM
EC50 [1]: < 100 nM

COc1ccc(C(=O)NC2CCC(=O)NC2=O)c2nc(C)n(CC(=O)N3CCN(CCn4c(C(=O)O)c(CCCOc5cccc6cc(F)ccc56)c5ccc(Cl)c(-c6c(C)nn(C)c6C)c54)CC3)c12 (stereo not drawn) [Compound 272, 6-Chloro-1-(2-(4-(2-(4-((2,6-dioxopiperidin-3-yl)carbamoyl)-7-methoxy-2-methyl-1H-benzo[d]imidazol-1-yl)acetyl)piperazin-1-yl)ethyl)-3-(3-((6-fluoronaphthalen-1-yl)oxy)propyl)-7-(1,3,5-trimethyl-1H-pyrazol-4-yl)-1H-indole-2-carboxylic acid]
IC50 (MV-4-11 cells): ≤ 100 nM
IC50 (ARH-77 cells): > 10000 nM
EC50 [1]: < 100 nM

Cc1nn(C)c(C)c1-c1c(Cl)ccc2c(CCCOc3cccc4cc(F)ccc34)c(C(=O)O)n(CCCOCCOc3cccc4c3CN(C3CCC(=O)NC3=O)C4=O)c12 (stereo not drawn) [Compound 329, 6-Chloro-1-[3-(2-{[2-(2,6-dioxopiperidin-3-yl)-1-oxo-2,3-dihydro-1H-isoindol-4-yl]oxy}ethoxy)propyl]-3-{3-[(6-fluoronaphthalen-1-yl)oxy]propyl}-7-(1,3,5-trimethyl-1H-pyrazol-4-yl)-1H-indole-2-carboxylic acid]
IC50 (MV-4-11 cells): ≤ 316 nM
IC50 (ARH-77 cells): > 10000 nM
EC50 [1]: < 100 nM

Cc1cc(C(=O)NC2CCC(=O)NC2=O)c2nc(C)n(CC(=O)N3CCN(CCn4c(C(=O)O)c(CCCOc5cccc6cc(F)ccc56)c5ccc(Cl)c(-c6c(C)nn(C)c6C)c54)CC3)c2c1 (stereo not drawn) [Compound 274, 6-Chloro-1-(2-(4-(2-(4-((2,6-dioxopiperidin-3-yl)carbamoyl)-2,6-dimethyl-1H-benzo[d]imidazol-1-yl)acetyl)piperazin-1-yl)ethyl)-3-(3-((6-fluoronaphthalen-1-yl)oxy)propyl)-7-(1,3,5-trimethyl-1H-pyrazol-4-yl)-1H-indole-2-carboxylic acid]
IC50 (MV-4-11 cells): ≤ 100 nM
IC50 (ARH-77 cells): > 10000 nM
EC50 [1]: < 10 nM

Cc1nn(C)c(C)c1-c1c(Cl)ccc2c(CCCOc3cccc4cc(F)ccc34)c(C(=O)O)n(CCN3CCN(C(=O)COc4cccc5c4CN([C@H]4CCC(=O)NC4=O)C5=O)CC3)c12 (single isomer, unassigned) [Compound 296]
IC50 (MV-4-11 cells): ≤ 31.6 nM
IC50 (ARH-77 cells): > 10000 nM
EC50 [1]: < 100 nM

Cc1nn2c(c1-c1c(F)ccc3c(CCCOc4cccc5cc(F)ccc45)c(C(=O)O)n(CCN4CCN(C(=O)COc5cccc6c5CN(C5CCC(=O)NC5=O)C6=O)CC4)c13)CCC2 (stereo not drawn) [Compound 225, 1-(2-(4-(2-((2-(2,6-dioxopiperidin-3-yl)-1-oxoisoindolin-4-yl)oxy)acetyl)piperazin-1-yl)ethyl)-6-fluoro-3-(3-((6-fluoronaphthalen-1-yl)oxy)propyl)-7-(2-methyl-5,6-dihydro-4H-pyrrolo[1,2-b]pyrazol-3-yl)-1H-indole-2-carboxylic acid]
IC50 (MV-4-11 cells): ≤ 316 nM
IC50 (ARH-77 cells): > 10000 nM
EC50 [1]: < 100 nM

Cc1nn(C)c(C)c1-c1c(Cl)ccc2c(CCCOc3cccc4ccccc34)c(C(=O)O)n(CCC3CCN(C(=O)COc4cccc5c4CN(C4CCC(=O)NC4=O)C5=O)CC3)c12 (stereo not drawn) [Compound 223, 6-chloro-1-{2-[1-(2-{[2-(2,6-dioxopiperidin-3-yl)-1-oxo-2,3-dihydro-1H-isoindol-4-yl]oxy}acetyl)piperidin-4-yl]ethyl}-3-[3-(naphthalen-1-yloxy)propyl]-7-(1,3,5-trimethyl-1H-pyrazol-4-yl)-1H-indole-2-carboxylic acid]
IC50 (MV-4-11 cells): ≤ 316 nM
IC50 (ARH-77 cells): > 10000 nM
EC50 [1]: < 100 nM

Cc1nn(C)c(C)c1-c1c(Cl)ccc2c(CCCOc3cccc4cc(F)ccc34)c(C(=O)O)n(CCN3CCN(C(=O)Cn4c(C)nc5c(C(=O)NC6CCC(=O)NC6=O)cc(Cl)cc54)CC3)c12 (stereo not drawn) [Compound 276, 6-Chloro-1-(2-(4-(2-(6-chloro-4-((2,6-dioxopiperidin-3-yl)carbamoyl)-2-methyl-1H-benzo[d]imidazol-1-yl)acetyl)piperazin-1-yl)ethyl)-3-(3-((6-fluoronaphthalen-1-yl)oxy)propyl)-7-(1,3,5-trimethyl-1H-pyrazol-4-yl)-1H-indole-2-carboxylic acid]
IC50 (MV-4-11 cells): ≤ 100 nM
IC50 (ARH-77 cells): > 10000 nM
EC50 [1]: < 100 nM
